Assay [1] addresses BTK (Homo sapiens (Human), UniProt Q06187). Nature of the assay: In Vitro BTK Kinase Assay: Btk-PolyGAT-LS Assay. Format: biochemical. The following applies: ATP 10 μM, polyGAT 100 nM, BTK 0.25 nM. On the procedure: In Vitro BTK Kinase Assay: Btk-PolyGAT-LS Assay
The purpose of the BTK in vitro assay is to determine compound potency against BTK through the measurement of IC50. Compound inhibition is measured after monitoring the amount of phosphorylation of a fluorescein-labeled polyGAT peptide (Invitrogen PV3611) in the presence of active BTK enzyme (Upstate 14-552), ATP, and inhibitor. The BTK kinase reaction was done in a black 96 well plate (costar 3694). For a typical assay, a […] aliquot of a ATP/peptide master mix (final concentration; ATP 10 μM, polyGAT 100 nM) in kinase buffer (10 mM Tris-HCl pH 7.5, 10 mM MgCl2, 200 μM Na3PO4, 5 mM DTT, 0.01% Triton X-100, and 0.2 mg/ml casein) is added to each well. Next, […] of a 4-fold, 40× compound titration in 100% DMSO solvent is added, followed by adding 15 uL of BTK enzyme mix in 1× kinase buffer (with a final concentration of 0.25 nM). The assay is incubated for 30 minutes before being stopped with […] of a 50 mM EDTA solution. Aliquots (5 uL) of the kinase reaction are transferred to a low volume white 384 well plate (Coming 3674), and 5 pL of a 2× detection buffer (Invitrogen PV3574, with 4 nM Tb-PY20 antibody, Invitrogen PV3552) is added. The plate is covered and incubated for 45 minutes at room temperature. Time resolved fluorescence (TRF) on Molecular Devices M5 (332 nm excitation; 488 nm emission; 518 nm fluorescein emission) is measured. IC50 values are calculated using a four parameter fit with 100% enzyme activity determined from the DMSO control and 0% activity from the EDTA control.
“†” represents an IC50 of greater than 1 μM and equal to or less than 10 μM. “††” represents an IC50 of greater than 10 nM and equal to or less than 1 μM (10 nM<IC50≤1 μM). “†††” represents an IC50 of greater than 1 nM and equal to or less than 10 nM (1 nM<IC50≤10 nM).

The subject of assay [2] is CD69 expression on CD19+ B cells in human whole blood. The assay can be described thus: In Vitro whole blood CD69 Assay. Format: cell-based. As to conditions: B-cell, human heparinized whole blood, anti-human IgD stimulation. As to the method: In Vitro whole blood CD69 Assay
Human heparinized venous blood from health donors was aliquoted into 96-well plate and “spiked” with serial dilutions of formula I compounds in DMSO or with DMSO without drug. The final concentration of DMSO in all wells was 0.1%. The plate was incubated at 37° C. for 30 min. Drug-containing samples were stimulated with 0.1 μg/mL mouse anti-human IgD-dextran (1A^62) or 20 μg/mL polyclonal rabbit F(ab′)2 anti-human IgD. Phosphate-buffered saline (PBS) was added to the negative control unstimulated sample and the plates were incubated overnight (18 to 22 hours) at 37° C. Cells were stained with fluorochrome-conjugated anti-CD19 and anti-CD69 antibodies. Lyse/fix solution was used to remove red blood cells by hypotonic lysis and to fix the remaining cells, which were then analyzed by flow cytometry. CD19+ B cells were gated and analyzed for CD69 expression. The percentage of B cells expressing CD69 was plotted versus the log 10 of the concentration of the drug and the best-fit curves (variable Hill slope) were generated to obtain the IC50 value.

The structures appear in SMILES notation.

One may read the IC50 as the point on the concentration scale where inhibition reaches its midpoint. Low values mean greater potency in that assay, high ones weaker potency in that assay.

BTK, sequence (Q06187 whole entry): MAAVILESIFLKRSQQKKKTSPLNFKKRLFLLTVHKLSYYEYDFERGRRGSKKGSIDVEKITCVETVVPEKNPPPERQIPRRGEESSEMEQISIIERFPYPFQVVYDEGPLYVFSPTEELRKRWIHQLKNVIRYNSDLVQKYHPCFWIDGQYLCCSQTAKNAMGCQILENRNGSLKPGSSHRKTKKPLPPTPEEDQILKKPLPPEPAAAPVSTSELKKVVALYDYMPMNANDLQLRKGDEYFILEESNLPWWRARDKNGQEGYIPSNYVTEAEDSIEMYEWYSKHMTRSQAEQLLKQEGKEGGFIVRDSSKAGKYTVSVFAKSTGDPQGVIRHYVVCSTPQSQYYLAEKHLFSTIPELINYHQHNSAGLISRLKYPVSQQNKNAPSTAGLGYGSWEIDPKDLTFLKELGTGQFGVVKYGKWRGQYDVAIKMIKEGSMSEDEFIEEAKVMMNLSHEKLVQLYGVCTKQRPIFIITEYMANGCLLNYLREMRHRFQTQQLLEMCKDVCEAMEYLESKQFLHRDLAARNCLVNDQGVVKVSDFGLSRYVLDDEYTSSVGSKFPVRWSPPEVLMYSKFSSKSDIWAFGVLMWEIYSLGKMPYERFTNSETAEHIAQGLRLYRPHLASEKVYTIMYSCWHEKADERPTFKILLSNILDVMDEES

Regarding `Cc1cc(-c2ncnn3cccc23)ccc1CN1CCNC(C)C1=O` (stereo not shown) [Compound 1, 3-methyl-1-(2-methyl-4-(pyrrolo[2,1-f][1,2,4]triazin-4-yl)benzyl)piperazin-2-one], the IC50 in assay [1] was 1000 to 10000 nM; in assay [2] it was at least 10000 nM.

As for `Cc1cc(-c2ncnn3cccc23)ccc1CN1CCN(CC(C)C)C(C)C1=O` (stereo not shown) [Compound 2, 4-isobutyl-3-methyl-1-(2-methyl-4-(pyrrolo[2,1-f][1,2,4]triazin-4-yl)benzyl)piperazin-2-one], the IC50 in assay [1] is 10 to 1000 nM; in assay [2], at least 10000 nM.

As to `Cc1cc(-c2ncnn3cccc23)ccc1CN1CCN(C2CC(F)(F)C2)C(C)C1=O` (stereo not shown) [Compound 3, 4-(3,3-difluorocyclobutyl)-3-methyl-1-(2-methyl-4-(pyrrolo[2,1-f][1,2,4]triazin-4-yl)benzyl)piperazin-2-one], the concentration for half-maximal inhibition (IC50) in assay [1] was 1000 to 10000 nM.

Regarding `Cc1cc(-c2ncnn3cc(-c4cnn(C)c4)cc23)ccc1CN1CCN(CC(C)C)C(C)C1=O` (stereo not shown) [Compound 4, 4-isobutyl-3-methyl-1-(2-methyl-4-(6-(1-methyl-1H-pyrazol-4-yl)pyrrolo[2,1-f][1,2,4]triazin-4-yl)benzyl)piperazin-2-one], the values for the IC50 in assay [1] and in assay [2] were 1 to 10 nM and at least 10000 nM, respectively.
